Measured values published in patent US20220281848A1, “PYRAZOLE-SUBSTITUTED PYRROLIDINONES AS HERBICIDES” (FMC Corporation, priority 2019, published 2022).

How the values were obtained:
Assay type in all cases: in vivo
[1] = tested on: maize; test: Test D pre-emergence, maize seed treated with a herbicide safener; conditions: preemergent; for damage to plant (100=total damage to plant; 0=no damage to plant), ZEAMX: 20 DAA; for ZEAMX damage to plant (100=total damage; 0=no damage): safener-treated seed
Procedure, shortened: (§1)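 Safener-seed-treated maize and wheat were sprayed with an emulsifiable formulation diluted in 0.2% v/v adjuvant solution, one day after sowing (pre-emergence) or after about 12 days (post-emergence). Plants were grown in a glasshouse at 24/18 or 20/16 °C with 16 h light; damage was scored 0–100 at 20 DAA (pre) or 15 d (post).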

[2] = tested on: barnyardgrass (Echinochloa crus-galli, ECHCG); test: Test A post-emergence, barnyardgrass; conditions: after 13 d
Procedure, shortened: (§2)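 Visual damage rating (0 no damage to 100 total damage) was made 13 d after spraying. The spray was 15.625, 62.5 or 250 g/ha in 50:50 acetone/water with 0.5% Tween 20, applied to 8-day-old glasshouse plants kept at 24/16° C, 14 h light and 65% humidity.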

[3] = tested on: corn (Zea mays, ZEAMX); test: Test A pre-emergence, corn; conditions: after 13 d
Procedure, shortened: (§3)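 After sowing in pots and a single day of glasshouse cultivation, the soil was treated with an aqueous spray of the compound (acetone/water 50:50, 0.5% Tween 20) giving 15.625, 62.5 or 250 g/ha. Evaluation after 13 d used a scale where 0 meant no damage and 100 total damage.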

[4] = tested on: redroot pigweed (Amaranthus retroflexus, AMARE); test: Test A post-emergence, redroot pigweed; conditions: after 13 d
Procedure, shortened: as §2

[5] = tested on: wheat; test: Test D pre-emergence, wheat seed treated with a herbicide safener; conditions: 100=total damage, 0=no damage
Procedure, shortened: as §1

[6] = tested on: giant foxtail (Setaria faberi, SETFA); test: Test A pre-emergence, giant foxtail; conditions: after 13 d
Procedure, shortened: as §3

[7] = tested on: giant foxtail (Setaria faberi, SETFA); test: Test A post-emergence, giant foxtail; conditions: after 13 d
Procedure, shortened: as §2

[8] = tested on: velvetleaf (Abutilon theophrasti, ABUTH); test: Test A post-emergence, velvetleaf; conditions: after 13 d
Procedure, shortened: as §2

[9] = tested on: velvetleaf (Abutilon theophrasti, ABUTH); test: Test A pre-emergence, velvetleaf; conditions: after 13 d
Procedure, shortened: as §3

[10] = tested on: redroot pigweed (Amaranthus retroflexus, AMARE); test: Test A pre-emergence, redroot pigweed; conditions: after 13 d
Procedure, shortened: as §3

Row | SMILES | damage to plant (100=total damage; 0=no damage) ECHCG ([2]; Post-Emergence at 15.625 g/ha) | damage to plant (100=total damage; 0=no damage) ECHCG ([2]; Post-Emergence at 62.5 g/ha) | damage to plant (100=total damage; 0=no damage) ECHCG ([2]; Post-Emergence at 250 g/ha) | damage to plant (100=total damage; 0=no damage) ZEAMX ([3]; Pre-Emergence at 15.625 g/ha) | damage to plant (100=total damage; 0=no damage) ZEAMX ([3]; Pre-Emergence at 62.5 g/ha) | damage to plant (100=total damage; 0=no damage) ZEAMX ([3]; Pre-Emergence at 250 g/ha) | damage to plant (100=total damage; 0=no damage) AMARE ([4]; Post-Emergence at 15.625 g/ha) | damage to plant (100=total damage; 0=no damage) AMARE ([4]; Post-Emergence at 62.5 g/ha) | damage to plant (100=total damage; 0=no damage) AMARE ([4]; Post-Emergence at 250 g/ha) | damage to plant, TRZAW ([5]; rate 60, 20 DAA) | damage to plant, TRZAW ([5]; rate 130, 20 DAA) | damage to plant, TRZAW ([5]; rate 250, 20 DAA) | damage to plant, TRZAW ([5]; rate 500, 20 DAA) | damage to plant (100=total damage; 0=no damage) SETFA ([6]; Pre-Emergence at 15.625 g/ha) | damage to plant (100=total damage; 0=no damage) SETFA ([6]; Pre-Emergence at 62.5 g/ha) | damage to plant (100=total damage; 0=no damage) SETFA ([6]; Pre-Emergence at 250 g/ha) | damage to plant (100=total damage; 0=no damage) SETFA ([7]; Post-Emergence at 15.625 g/ha) | damage to plant (100=total damage; 0=no damage) SETFA ([7]; Post-Emergence at 62.5 g/ha) | damage to plant (100=total damage; 0=no damage) SETFA ([7]; Post-Emergence at 250 g/ha) | damage to plant (100=total damage; 0=no damage) ABUTH ([8]; Post-Emergence at 15.625 g/ha) | further results
1 | CN1CC(c2cc(C(F)(F)F)n(C)n2)C(C(=O)Nc2ccc(F)nc2F)C1=O (racemic) [Compound 22] | 60 | 70 | 80 | 0 | 20 | 40 | 0 | 0 | 0 | 0 | 0 | 0 | 10 | 80 | 90 | 90 | 50 | 70 | 80 | 0 | damage to plant (100=total damage to plant; 0=no damage to plant), ZEAMX ([1]; rate 15): 0; damage to plant (100=total damage to plant; 0=no damage to plant), ZEAMX ([1]; rate 30): 0; damage to plant (100=total damage to plant; 0=no damage to plant), ZEAMX ([1]; rate 60): 0; damage to plant (100=total damage to plant; 0=no damage to plant), ZEAMX ([1]; rate 130): 0; damage to plant (100=total damage to plant; 0=no damage to plant), ZEAMX ([1]; rate 250): 0; damage to plant (100=total damage to plant; 0=no damage to plant), ZEAMX ([1]; rate 500): 0; damage to plant, TRZAW ([5]; rate 15, 20 DAA): 0; damage to plant, TRZAW ([5]; rate 30, 20 DAA): 0; damage to plant (100=total damage; 0=no damage) ABUTH ([8]; Post-Emergence at 62.5 g/ha): 0; damage to plant (100=total damage; 0=no damage) ABUTH ([8]; Post-Emergence at 250 g/ha): 0; damage to plant (100=total damage; 0=no damage) ABUTH ([9]; Pre-Emergence at 15.625 g/ha): 0; damage to plant (100=total damage; 0=no damage) ABUTH ([9]; Pre-Emergence at 62.5 g/ha): 0; damage to plant (100=total damage; 0=no damage) ABUTH ([9]; Pre-Emergence at 250 g/ha): 0; damage to plant (100=total damage; 0=no damage) AMARE ([10]; Pre-Emergence at 15.625 g/ha): 0; damage to plant (100=total damage; 0=no damage) AMARE ([10]; Pre-Emergence at 62.5 g/ha): 10; damage to plant (100=total damage; 0=no damage) AMARE ([10]; Pre-Emergence at 250 g/ha): 20
2 | CN1CC(c2cc(Cl)n(C)n2)C(C(=O)Nc2ccc(F)c(F)c2F)C1=O (racemic) [Compound 31] | 50 | 80 | 80 | 0 | 10 | 20 | 0 | 10 | 20 | 0 | 0 | 0 | 0 | 40 | 80 | 80 | 40 | 80 | 80 | 0 | ZEAMX damage to plant (100=total damage; 0=no damage) ([1]; Rates 15, 20 DAA): 0; ZEAMX damage to plant (100=total damage; 0=no damage) ([1]; Rates 30, 20 DAA): 0; ZEAMX damage to plant (100=total damage; 0=no damage) ([1]; Rates 60, 20 DAA): 0; ZEAMX damage to plant (100=total damage; 0=no damage) ([1]; Rates 130, 20 DAA): 0; ZEAMX damage to plant (100=total damage; 0=no damage) ([1]; Rates 250, 20 DAA): 0; ZEAMX damage to plant (100=total damage; 0=no damage) ([1]; Rates 500, 20 DAA): 0; TRZAW damage rating ([5]; Rates 15, 20 DAA): 0; TRZAW damage rating ([5]; Rates 30, 20 DAA): 0; damage to plant (100=total damage; 0=no damage) ABUTH ([8]; Post-Emergence at 62.5 g/ha): 0; damage to plant (100=total damage; 0=no damage) ABUTH ([8]; Post-Emergence at 250 g/ha): 0; damage to plant (100=total damage; 0=no damage) ABUTH ([9]; Pre-Emergence at 15.625 g/ha): 0; damage to plant (100=total damage; 0=no damage) ABUTH ([9]; Pre-Emergence at 62.5 g/ha): 0; damage to plant (100=total damage; 0=no damage) ABUTH ([9]; Pre-Emergence at 250 g/ha): 0; damage to plant (100=total damage; 0=no damage) AMARE ([10]; Pre-Emergence at 15.625 g/ha): 0; damage to plant (100=total damage; 0=no damage) AMARE ([10]; Pre-Emergence at 62.5 g/ha): 0; damage to plant (100=total damage; 0=no damage) AMARE ([10]; Pre-Emergence at 250 g/ha): 0
